Source: ChEMBL document CHEMBL4507274 (2021)

Key:
[1] = molecular target: Serine/threonine-protein kinase Nek5 (Homo sapiens) (UniProt Q6P3R8); details: Compound concentration 100.0 nM
[2] = molecular target: Activin receptor type-1-like (Homo sapiens) (UniProt P37023); details: Compound concentration 100.0 nM
[3] = molecular target: Sodium-dependent serotonin transporter (Homo sapiens) (UniProt P31645); details: Compound concentration 10.0 uM
[4] = molecular target: Dual specificity mitogen-activated protein kinase kinase 5 (Homo sapiens) (UniProt Q13163); details: Compound concentration 100.0 nM
[5] = test system: Tyrosine-protein kinase ABL1 (Homo sapiens), P00519 [H396P]; details: Compound concentration 100.0 nM
[6] = test system: Receptor-type tyrosine-protein kinase FLT3 (Homo sapiens), P36888 [D835Y]; details: Compound concentration 100.0 nM
[7] = molecular target: Myotonin-protein kinase (Homo sapiens) (UniProt Q09013); details: Compound concentration 100.0 nM
[8] = molecular target: Serine/threonine-protein kinase WNK1 (Homo sapiens) (UniProt Q9H4A3); details: Compound concentration 100.0 nM
Chain of Serine/threonine-protein kinase WNK1 (Homo sapiens) (Q9H4A3 whole entry, looked up): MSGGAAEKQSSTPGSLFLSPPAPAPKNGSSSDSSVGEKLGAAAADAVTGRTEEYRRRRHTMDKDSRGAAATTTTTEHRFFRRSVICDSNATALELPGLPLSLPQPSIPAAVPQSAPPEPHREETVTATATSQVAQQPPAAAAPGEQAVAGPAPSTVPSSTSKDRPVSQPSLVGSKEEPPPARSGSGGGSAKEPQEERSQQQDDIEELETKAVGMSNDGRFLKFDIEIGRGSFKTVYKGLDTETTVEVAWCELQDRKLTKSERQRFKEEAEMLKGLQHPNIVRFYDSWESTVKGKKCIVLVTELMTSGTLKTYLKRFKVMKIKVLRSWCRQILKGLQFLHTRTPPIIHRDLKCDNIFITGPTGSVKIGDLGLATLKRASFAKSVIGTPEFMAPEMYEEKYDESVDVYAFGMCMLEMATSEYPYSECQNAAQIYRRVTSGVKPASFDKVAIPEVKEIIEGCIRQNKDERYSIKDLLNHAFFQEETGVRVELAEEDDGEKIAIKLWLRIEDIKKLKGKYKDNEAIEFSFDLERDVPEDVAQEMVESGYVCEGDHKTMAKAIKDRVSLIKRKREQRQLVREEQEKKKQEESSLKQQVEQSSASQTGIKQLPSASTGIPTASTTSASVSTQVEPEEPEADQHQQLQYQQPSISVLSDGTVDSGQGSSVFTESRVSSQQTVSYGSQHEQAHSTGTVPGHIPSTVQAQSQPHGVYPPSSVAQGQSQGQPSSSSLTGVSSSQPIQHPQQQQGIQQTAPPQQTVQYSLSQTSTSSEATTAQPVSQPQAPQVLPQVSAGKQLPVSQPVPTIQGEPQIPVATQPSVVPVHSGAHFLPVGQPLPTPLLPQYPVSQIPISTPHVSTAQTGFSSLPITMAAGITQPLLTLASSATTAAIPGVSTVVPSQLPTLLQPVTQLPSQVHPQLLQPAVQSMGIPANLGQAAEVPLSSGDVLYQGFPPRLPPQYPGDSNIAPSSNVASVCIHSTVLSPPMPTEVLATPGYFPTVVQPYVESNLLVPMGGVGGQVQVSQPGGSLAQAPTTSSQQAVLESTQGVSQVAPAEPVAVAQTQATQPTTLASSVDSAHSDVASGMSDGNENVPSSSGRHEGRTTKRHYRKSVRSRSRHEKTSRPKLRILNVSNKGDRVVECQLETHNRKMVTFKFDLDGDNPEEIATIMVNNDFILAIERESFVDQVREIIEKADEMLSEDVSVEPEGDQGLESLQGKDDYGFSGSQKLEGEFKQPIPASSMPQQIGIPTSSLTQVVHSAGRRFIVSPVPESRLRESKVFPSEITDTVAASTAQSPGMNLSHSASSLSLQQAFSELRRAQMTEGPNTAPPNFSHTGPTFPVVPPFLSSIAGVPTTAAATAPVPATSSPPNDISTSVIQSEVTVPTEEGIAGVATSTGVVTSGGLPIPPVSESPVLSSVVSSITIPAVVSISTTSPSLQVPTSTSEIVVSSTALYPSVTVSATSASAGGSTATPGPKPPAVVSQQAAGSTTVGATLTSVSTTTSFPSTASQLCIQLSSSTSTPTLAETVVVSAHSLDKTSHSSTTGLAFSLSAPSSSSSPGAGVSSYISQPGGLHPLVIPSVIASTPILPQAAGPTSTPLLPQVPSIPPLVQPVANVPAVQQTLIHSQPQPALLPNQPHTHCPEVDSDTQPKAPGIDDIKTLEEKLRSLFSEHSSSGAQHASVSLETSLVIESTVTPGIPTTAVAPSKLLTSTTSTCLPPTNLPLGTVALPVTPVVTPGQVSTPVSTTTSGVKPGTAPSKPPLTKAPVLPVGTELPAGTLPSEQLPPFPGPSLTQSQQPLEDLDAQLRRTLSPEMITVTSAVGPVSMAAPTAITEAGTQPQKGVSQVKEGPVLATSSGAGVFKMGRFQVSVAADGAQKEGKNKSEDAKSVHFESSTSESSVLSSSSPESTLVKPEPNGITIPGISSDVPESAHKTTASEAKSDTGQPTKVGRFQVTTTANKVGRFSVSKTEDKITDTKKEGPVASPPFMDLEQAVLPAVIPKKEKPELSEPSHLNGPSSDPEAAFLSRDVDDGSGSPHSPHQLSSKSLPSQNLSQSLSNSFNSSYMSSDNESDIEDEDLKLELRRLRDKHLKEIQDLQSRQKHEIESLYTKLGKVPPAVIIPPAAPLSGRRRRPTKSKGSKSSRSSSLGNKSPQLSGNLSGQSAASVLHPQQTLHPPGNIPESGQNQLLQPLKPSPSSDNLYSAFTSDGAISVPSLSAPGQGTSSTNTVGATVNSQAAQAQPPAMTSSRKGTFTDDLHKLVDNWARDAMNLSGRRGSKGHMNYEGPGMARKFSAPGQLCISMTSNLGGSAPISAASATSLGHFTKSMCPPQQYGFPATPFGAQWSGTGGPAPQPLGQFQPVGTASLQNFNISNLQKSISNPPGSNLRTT

[9] = molecular target: Ephrin type-B receptor 1 (Homo sapiens) (UniProt P54762); details: Compound concentration 100.0 nM
[10] = molecular target: 5-hydroxytryptamine receptor 2B (Homo sapiens) (UniProt P41595); details: Compound concentration 10.0 uM
[11] = molecular target: Tyrosine-protein kinase ABL1 (Homo sapiens) (UniProt P00519); details: Compound concentration 100.0 nM
[12] = test system: Receptor-type tyrosine-protein kinase FLT3 (Homo sapiens), P36888 [N841I]; details: Compound concentration 100.0 nM
[13] = molecular target: Serine/threonine-protein kinase MRCK alpha (Homo sapiens) (UniProt Q5VT25); details: Compound concentration 100.0 nM
[14] = molecular target: Calcium/calmodulin-dependent protein kinase type 1B (Homo sapiens) (UniProt Q6P2M8); details: Compound concentration 100.0 nM
[15] = molecular target: T1, Serine/threonine-protein kinase 3 (Homo sapiens) (UniProt Q13188); details: Compound concentration 100.0 nM
T1 sequence (whole entry): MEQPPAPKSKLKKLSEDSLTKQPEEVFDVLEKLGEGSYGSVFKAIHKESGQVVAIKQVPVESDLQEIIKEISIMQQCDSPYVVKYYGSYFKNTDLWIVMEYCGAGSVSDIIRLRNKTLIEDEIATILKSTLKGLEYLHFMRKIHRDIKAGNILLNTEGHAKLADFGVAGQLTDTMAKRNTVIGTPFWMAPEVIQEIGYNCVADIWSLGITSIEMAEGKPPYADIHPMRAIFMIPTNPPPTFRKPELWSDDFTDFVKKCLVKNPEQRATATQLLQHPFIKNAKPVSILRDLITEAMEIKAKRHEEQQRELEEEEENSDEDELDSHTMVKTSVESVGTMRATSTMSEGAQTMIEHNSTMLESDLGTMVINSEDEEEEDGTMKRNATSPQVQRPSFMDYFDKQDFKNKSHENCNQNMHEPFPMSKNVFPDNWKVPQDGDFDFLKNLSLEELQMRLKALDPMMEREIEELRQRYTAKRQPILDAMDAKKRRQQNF

[16] = molecular target: Tyrosine-protein kinase Lck (Homo sapiens) (UniProt P06239); details: Compound concentration 100.0 nM
[17] = molecular target: Casein kinase II subunit alpha (Homo sapiens) (UniProt P68400); details: Compound concentration 100.0 nM
[18] = molecular target: Inhibitor of nuclear factor kappa-B kinase subunit beta (Homo sapiens) (UniProt O14920); details: Compound concentration 100.0 nM
[19] = molecular target: Serine/threonine-protein kinase PLK4 (Homo sapiens) (UniProt O00444); details: Compound concentration 100.0 nM
Chain of Serine/threonine-protein kinase PLK4 (Homo sapiens) (O00444 whole entry): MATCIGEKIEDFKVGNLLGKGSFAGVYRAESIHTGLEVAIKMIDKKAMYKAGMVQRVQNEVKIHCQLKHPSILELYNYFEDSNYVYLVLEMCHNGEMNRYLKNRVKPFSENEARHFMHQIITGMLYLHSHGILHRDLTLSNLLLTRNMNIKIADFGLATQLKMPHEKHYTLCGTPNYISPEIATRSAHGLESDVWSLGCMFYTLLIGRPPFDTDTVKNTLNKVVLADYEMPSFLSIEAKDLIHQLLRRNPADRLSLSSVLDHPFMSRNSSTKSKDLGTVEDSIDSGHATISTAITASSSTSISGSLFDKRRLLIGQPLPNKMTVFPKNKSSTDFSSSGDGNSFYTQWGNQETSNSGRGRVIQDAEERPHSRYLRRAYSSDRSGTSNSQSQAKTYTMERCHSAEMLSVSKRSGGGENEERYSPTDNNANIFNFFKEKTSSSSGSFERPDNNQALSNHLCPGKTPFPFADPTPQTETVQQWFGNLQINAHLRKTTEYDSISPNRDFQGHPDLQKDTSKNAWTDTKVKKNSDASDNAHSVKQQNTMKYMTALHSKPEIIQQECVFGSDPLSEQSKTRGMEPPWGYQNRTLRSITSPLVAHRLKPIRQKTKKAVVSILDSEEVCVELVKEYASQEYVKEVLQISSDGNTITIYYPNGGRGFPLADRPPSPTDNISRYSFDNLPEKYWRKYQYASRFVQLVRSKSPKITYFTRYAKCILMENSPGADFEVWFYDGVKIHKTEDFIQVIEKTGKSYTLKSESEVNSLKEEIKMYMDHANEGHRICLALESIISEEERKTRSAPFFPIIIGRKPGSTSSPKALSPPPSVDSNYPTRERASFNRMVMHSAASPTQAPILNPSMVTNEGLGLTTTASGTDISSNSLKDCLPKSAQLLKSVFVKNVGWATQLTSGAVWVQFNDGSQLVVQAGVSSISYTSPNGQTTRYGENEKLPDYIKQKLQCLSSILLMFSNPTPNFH

[20] = molecular target: Platelet-derived growth factor receptor beta (Homo sapiens) (UniProt P09619); details: Compound concentration 100.0 nM
[21] = test system: Receptor-type tyrosine-protein kinase FLT3 (Homo sapiens), P36888 [UNDEFINED MUTATION]; details: Compound concentration 100.0 nM
[22] = molecular target: Cyclin-dependent kinase 2 (Homo sapiens) (UniProt P24941); details: Compound concentration 100.0 nM
[23] = molecular target: Kappa-type opioid receptor (Homo sapiens, UniProt P41145); experiment: GPCRScan assay: inhibition of KOR; parameters: radioligand conc. used [nm] 0.6 – 1.2, parental cells stable HEK
[24] = molecular target: Serine/threonine-protein kinase PLK2 (Homo sapiens) (UniProt Q9NYY3); details: Compound concentration 100.0 nM
Chain of Serine/threonine-protein kinase PLK2 (Homo sapiens) (Q9NYY3 whole entry, looked up): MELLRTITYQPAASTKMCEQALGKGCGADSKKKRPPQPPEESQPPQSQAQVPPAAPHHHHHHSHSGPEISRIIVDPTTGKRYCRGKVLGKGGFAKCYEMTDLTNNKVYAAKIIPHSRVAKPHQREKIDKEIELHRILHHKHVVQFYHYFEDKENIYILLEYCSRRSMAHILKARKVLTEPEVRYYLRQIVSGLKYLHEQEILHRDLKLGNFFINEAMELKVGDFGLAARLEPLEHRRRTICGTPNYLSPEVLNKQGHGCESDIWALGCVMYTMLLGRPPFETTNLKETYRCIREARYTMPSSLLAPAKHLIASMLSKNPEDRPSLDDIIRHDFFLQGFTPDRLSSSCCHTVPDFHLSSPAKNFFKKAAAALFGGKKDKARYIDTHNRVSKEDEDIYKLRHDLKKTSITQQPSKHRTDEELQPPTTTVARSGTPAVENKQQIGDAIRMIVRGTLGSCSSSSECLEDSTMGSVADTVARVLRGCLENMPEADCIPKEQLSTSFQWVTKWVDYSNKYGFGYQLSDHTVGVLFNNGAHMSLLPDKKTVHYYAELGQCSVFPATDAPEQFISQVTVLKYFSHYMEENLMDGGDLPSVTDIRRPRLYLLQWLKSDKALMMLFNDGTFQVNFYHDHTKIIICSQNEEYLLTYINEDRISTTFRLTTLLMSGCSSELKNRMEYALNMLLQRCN

[25] = molecular target: T2, Mitogen-activated protein kinase 12 (Homo sapiens) (UniProt P53778); details: Compound concentration 100.0 nM
T2 sequence (whole entry): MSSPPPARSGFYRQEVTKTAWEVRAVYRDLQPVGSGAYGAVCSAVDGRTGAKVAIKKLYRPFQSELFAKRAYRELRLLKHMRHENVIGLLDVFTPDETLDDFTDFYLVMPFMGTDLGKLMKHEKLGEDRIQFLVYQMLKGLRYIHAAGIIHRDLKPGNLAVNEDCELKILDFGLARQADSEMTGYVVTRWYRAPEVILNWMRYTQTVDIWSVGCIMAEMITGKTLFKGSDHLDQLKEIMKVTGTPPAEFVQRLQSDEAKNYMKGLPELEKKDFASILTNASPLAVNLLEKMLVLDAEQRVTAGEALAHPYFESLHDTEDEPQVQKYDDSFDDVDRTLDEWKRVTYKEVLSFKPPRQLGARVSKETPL

[26] = molecular target: Receptor-type tyrosine-protein kinase FLT3 (Homo sapiens) (UniProt P36888); details: Compound concentration 100.0 nM
[27] = molecular target: Serine/threonine-protein kinase Sgk3 (Homo sapiens) (UniProt Q96BR1); details: Compound concentration 100.0 nM
[28] = molecular target: Serine/threonine-protein kinase Nek9 (Homo sapiens) (UniProt Q8TD19); details: Compound concentration 100.0 nM
[29] = molecular target: Cyclin-dependent kinase-like 2 (Homo sapiens) (UniProt Q92772); details: Compound concentration 100.0 nM
[30] = molecular target: Mitogen-activated protein kinase kinase kinase kinase 5 (Homo sapiens) (UniProt Q9Y4K4); details: Compound concentration 100.0 nM
Chain of Mitogen-activated protein kinase kinase kinase kinase 5 (Homo sapiens) (Q9Y4K4 whole entry, looked up): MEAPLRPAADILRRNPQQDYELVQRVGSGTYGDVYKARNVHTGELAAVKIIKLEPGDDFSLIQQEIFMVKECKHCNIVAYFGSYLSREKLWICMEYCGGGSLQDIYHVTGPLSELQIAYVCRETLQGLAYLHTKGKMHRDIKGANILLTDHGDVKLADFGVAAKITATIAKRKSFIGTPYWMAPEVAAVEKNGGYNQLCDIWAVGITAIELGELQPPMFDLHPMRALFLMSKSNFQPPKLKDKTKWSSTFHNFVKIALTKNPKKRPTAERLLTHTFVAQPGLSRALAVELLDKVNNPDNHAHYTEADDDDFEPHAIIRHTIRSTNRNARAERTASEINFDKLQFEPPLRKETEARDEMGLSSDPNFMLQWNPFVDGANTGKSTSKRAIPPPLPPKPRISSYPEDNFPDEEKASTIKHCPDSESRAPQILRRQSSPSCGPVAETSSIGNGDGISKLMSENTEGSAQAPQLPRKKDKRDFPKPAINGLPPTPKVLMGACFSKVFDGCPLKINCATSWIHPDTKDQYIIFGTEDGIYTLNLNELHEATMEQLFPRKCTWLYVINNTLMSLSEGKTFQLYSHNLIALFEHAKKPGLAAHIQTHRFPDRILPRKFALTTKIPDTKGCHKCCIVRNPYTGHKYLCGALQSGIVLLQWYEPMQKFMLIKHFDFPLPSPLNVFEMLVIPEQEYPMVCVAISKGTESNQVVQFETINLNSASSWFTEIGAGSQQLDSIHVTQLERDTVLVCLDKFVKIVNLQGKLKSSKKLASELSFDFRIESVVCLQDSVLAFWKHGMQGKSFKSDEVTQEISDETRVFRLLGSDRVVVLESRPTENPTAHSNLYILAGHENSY

[31] = molecular target: TRAF2 and NCK-interacting protein kinase (Homo sapiens) (UniProt Q9UKE5); details: Compound concentration 100.0 nM
[32] = molecular target: Phosphatidylinositol 4,5-bisphosphate 3-kinase catalytic subunit beta isoform (Homo sapiens) (UniProt P42338); details: Compound concentration 100.0 nM
[33] = molecular target: Ephrin type-A receptor 2 (Homo sapiens) (UniProt P29317); details: Compound concentration 100.0 nM

Compound | residual activity [1] | residual activity [2] | inhibition [3] | residual activity [4] | residual activity [5] | residual activity [6] | residual activity [7] | residual activity [8] | residual activity [9] | inhibition [10] | residual activity [11] | residual activity [12] | residual activity [13] | residual activity [14] | residual activity [15] | residual activity [16] | residual activity [17] | residual activity [18] | residual activity [19] | residual activity [20] | other results
Cc1c[nH]c2nccc(Oc3c(F)cc(Nc4cc(Cl)nc(N)n4)cc3F)c12 [BAY-549] | 97% | 100% | 2.1% | 82% | 82% | 63% | 56% | 90% | 86% | 10.4% | 97% | 76% | 98% | 94% | 69% | 100% | 100% | 69% | 82% | 83% | residual activity [21]: 54%; residual activity [22]: 99%; Ki [23]: 187 nM; residual activity [24]: 59%; residual activity [25]: 100%; residual activity [26]: 76%; residual activity [27]: 88%; residual activity [28]: 96%; residual activity [29]: 93%; residual activity [30]: 93%; residual activity [31]: 100%; residual activity [32]: 76%; residual activity [33]: 100%
Cn1cc(Cl)c2c(Oc3c(F)cc(Nc4cc(Cl)nc(N)n4)cc3F)ccnc21 [BAY-4900] | 100% | 93% | -5.34% | 100% | 84% | 99% | 86% | 98% | 96% | 17.3% | 97% | 96% | 84% | 90% | 92% | 100% | 98% | 87% | 83% | 96% | residual activity [21]: 61%; residual activity [22]: 100%; Ki [23]: 391 nM; residual activity [24]: 83%; residual activity [25]: 100%; residual activity [26]: 100%; residual activity [27]: 90%; residual activity [28]: 100%; residual activity [29]: 100%; residual activity [30]: 91%; residual activity [31]: 96%; residual activity [32]: 82%; residual activity [33]: 100%
